ChEMBL document CHEMBL1145159 (J Med Chem, 2005)
Where “and” joins values, the source holds several entries; their conditions need not be identical. Equal entries are not always repeated. Square brackets hold non-standard residues; d marks the D form. Peptide text beside a SMILES is read from it. Hyp = O=C(O)[C@@H]1C[C@@H](O)CN1

What was measured:
[1] = Inhibitory concentration against Nicotinic acetylcholine receptor alpha-6-alpha-4-beta-4; Range is 0.7-1 nM
[2] = molecular target: T1, Neuronal acetylcholine receptor; alpha3/beta2 (Homo sapiens, UniProt P17787+P32297); assay: Inhibitory concentration against Nicotinic acetylcholine receptor alpha3-beta2; Range is 0.5-8 nM; type: protein-complex assay
T1 sequence (P17787 whole entry): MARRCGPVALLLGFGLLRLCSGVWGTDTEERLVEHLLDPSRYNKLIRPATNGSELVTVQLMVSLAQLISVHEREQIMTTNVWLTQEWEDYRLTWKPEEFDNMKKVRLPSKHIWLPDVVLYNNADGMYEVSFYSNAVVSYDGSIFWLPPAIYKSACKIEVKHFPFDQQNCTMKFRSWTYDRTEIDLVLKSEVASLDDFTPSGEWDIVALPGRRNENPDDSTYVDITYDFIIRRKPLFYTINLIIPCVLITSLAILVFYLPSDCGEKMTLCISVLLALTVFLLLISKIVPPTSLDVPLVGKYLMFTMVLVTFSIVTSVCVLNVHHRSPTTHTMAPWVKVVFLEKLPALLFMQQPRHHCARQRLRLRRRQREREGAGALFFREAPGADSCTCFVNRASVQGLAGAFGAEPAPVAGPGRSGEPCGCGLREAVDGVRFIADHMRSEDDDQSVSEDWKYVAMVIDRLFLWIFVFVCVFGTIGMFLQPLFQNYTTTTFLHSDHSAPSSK
T1 sequence (P32297 whole entry): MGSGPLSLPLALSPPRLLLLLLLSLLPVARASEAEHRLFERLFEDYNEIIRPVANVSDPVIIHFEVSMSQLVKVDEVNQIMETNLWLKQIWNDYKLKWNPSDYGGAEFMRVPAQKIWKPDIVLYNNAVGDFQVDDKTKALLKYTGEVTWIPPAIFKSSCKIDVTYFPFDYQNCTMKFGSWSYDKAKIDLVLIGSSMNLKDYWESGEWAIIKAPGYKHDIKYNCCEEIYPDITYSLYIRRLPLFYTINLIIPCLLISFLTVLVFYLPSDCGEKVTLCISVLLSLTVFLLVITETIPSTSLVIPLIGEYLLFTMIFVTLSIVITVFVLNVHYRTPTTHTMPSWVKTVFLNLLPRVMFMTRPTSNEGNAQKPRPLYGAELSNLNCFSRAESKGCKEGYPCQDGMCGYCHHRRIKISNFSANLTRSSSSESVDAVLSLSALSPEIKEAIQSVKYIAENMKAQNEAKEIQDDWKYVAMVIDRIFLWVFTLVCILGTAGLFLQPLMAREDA

[3] = Inhibitory concentration against Nicotinic acetylcholine receptor alpha-6-alpha-3-beta-2; Range is 0.5-8 nM; design: species or system Homo sapiens
[4] = molecular target: T2, Neuronal acetylcholine receptor; alpha4/beta2 (Homo sapiens, UniProt P17787+P43681); assay: Inhibitory concentration against Nicotinic acetylcholine receptor alpha4-beta2; Range is 0.5-8 nM; type: protein-complex assay
T2 sequence (P17787 whole entry): as the sequence (P17787 whole entry) above
T2 sequence (P43681 whole entry): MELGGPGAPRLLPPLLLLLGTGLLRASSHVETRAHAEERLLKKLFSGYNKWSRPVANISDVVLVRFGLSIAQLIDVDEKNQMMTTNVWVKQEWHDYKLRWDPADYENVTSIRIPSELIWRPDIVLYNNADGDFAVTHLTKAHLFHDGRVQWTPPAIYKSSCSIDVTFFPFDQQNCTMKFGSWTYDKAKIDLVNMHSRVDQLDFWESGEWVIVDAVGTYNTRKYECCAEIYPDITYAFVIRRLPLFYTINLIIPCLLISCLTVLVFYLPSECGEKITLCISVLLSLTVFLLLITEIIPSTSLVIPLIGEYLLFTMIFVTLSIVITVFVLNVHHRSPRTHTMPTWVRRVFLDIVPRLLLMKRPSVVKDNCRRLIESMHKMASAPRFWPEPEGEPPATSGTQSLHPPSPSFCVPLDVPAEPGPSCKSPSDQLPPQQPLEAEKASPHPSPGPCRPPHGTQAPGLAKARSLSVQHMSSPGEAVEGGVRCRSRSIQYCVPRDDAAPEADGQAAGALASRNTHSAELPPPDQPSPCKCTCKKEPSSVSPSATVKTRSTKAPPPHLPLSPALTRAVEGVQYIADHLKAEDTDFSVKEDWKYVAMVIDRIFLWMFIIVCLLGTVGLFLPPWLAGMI

[5] = molecular target: T3, Neuronal acetylcholine receptor subunit alpha-7 (Homo sapiens, UniProt P36544); assay: Inhibitory concentration against Nicotinic acetylcholine receptor alpha7; Range is 0.5-8 nM
T3 sequence (P36544 whole entry): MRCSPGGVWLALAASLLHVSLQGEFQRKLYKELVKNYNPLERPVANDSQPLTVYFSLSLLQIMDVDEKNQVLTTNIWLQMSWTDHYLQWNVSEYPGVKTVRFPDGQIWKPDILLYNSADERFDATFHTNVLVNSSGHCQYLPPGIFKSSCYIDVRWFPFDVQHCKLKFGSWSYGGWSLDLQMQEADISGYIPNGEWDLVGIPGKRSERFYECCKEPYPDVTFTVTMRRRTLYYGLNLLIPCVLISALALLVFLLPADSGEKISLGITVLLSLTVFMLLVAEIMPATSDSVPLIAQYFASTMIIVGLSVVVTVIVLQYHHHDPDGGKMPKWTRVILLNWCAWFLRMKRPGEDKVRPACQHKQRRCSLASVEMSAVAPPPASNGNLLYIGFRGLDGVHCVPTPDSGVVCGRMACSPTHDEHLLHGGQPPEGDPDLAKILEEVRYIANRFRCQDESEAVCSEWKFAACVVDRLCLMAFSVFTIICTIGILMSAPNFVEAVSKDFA

[6] = molecular target: T3, Neuronal acetylcholine receptor subunit alpha-7; assay: Inhibitory concentration against Nicotinic acetylcholine receptor alpha-7 Range is 3-5 nM
[7] = molecular target: T2, Neuronal acetylcholine receptor; alpha4/beta2; assay: Inhibitory concentration against Nicotinic acetylcholine receptor alpha4-beta2; Range is 3-5 nM; type: protein-complex assay
[8] = molecular target: T4, Neuronal acetylcholine receptor; alpha3/beta4 (Homo sapiens, UniProt P30926+P32297); assay: Inhibitory concentration against Nicotinic acetylcholine receptor alpha3-beta4; Range is 3-5 nM; type: protein-complex assay
T4 sequence (P30926 whole entry): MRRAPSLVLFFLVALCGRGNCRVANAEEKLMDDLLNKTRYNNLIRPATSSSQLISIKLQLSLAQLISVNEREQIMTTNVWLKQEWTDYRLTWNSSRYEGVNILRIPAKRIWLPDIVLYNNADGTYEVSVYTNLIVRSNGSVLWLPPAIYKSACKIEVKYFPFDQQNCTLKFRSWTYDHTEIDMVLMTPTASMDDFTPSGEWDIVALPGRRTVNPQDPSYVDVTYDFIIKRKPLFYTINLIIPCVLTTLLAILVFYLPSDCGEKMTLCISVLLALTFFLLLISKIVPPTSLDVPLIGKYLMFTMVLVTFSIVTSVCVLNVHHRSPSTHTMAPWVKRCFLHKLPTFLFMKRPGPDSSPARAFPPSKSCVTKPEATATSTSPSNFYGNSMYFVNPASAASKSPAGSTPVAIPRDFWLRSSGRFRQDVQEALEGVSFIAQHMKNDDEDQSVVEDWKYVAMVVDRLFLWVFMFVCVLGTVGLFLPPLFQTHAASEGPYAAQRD
T4 sequence (P32297 whole entry): as the sequence (P32297 whole entry) above

[9] = molecular target: T5, Neuronal acetylcholine receptor; alpha4/beta4 (Homo sapiens, UniProt P30926+P43681); assay: Inhibitory concentration against Nicotinic acetylcholine receptor alpha4-beta4; Range is 3-5 nM; type: protein-complex assay
T5 sequence (P30926 whole entry): as the sequence (P30926 whole entry) above
T5 sequence (P43681 whole entry): as the sequence (P43681 whole entry) above

[10] = molecular target: T1, Neuronal acetylcholine receptor; alpha3/beta2; assay: Inhibitory concentration against Nicotinic acetylcholine receptor alpha3-beta2; Range is 3-5 nM; type: protein-complex assay
[11] = molecular target: T1, Neuronal acetylcholine receptor; alpha3/beta2; assay: Inhibitory concentration against Nicotinic acetylcholine receptor alpha3-beta2; type: protein-complex assay
[12] = molecular target: Neuronal acetylcholine receptor; alpha2/beta2 (Homo sapiens, UniProt P17787+Q15822); assay: Inhibitory concentration against Nicotinic acetylcholine receptor alpha2-beta2; type: protein-complex assay
[13] = molecular target: T2, Neuronal acetylcholine receptor; alpha4/beta2; assay: (§1) Inhibitory concentration against Nicotinic acetylcholine receptor alpha4-beta2; type: protein-complex assay
[14] = molecular target: T3, Neuronal acetylcholine receptor subunit alpha-7; assay: Inhibitory concentration against Nicotinic acetylcholine receptor alpha 7
[15] = molecular target: T2, Neuronal acetylcholine receptor; alpha4/beta2; assay: Ki or IC50 concentration against Nicotinic acetylcholine receptor alpha4-beta2 expressed in xenopus oocytes; type: cell-based; conditions: Oocyte
[16] = molecular target: T5, Neuronal acetylcholine receptor; alpha4/beta4; assay: Ki or IC50 concentration against Nicotinic acetylcholine receptor alpha4-beta4 expressed in xenopus oocytes; type: cell-based; conditions: Oocyte
[17] = Inhibitory concentration against Nicotinic acetylcholine receptor alpha3-beta4 expressed in xenopus oocytes; type: cell-based; conditions: oocyte
[18] = Inhibitory concentration against Nicotinic acetylcholine receptor alpha2-beta4 expressed in xenopus oocytes; type: cell-based; conditions: oocyte
[19] = molecular target: Neuronal acetylcholine receptor; alpha2/beta4 (Homo sapiens, UniProt P30926+Q15822); assay: Inhibitory concentration against Nicotinic acetylcholine receptor alpha2-beta4; type: protein-complex assay
[20] = molecular target: T1, Neuronal acetylcholine receptor; alpha3/beta2; assay: Inhibitory concentration against Nicotinic acetylcholine receptor alpha3-beta2 expressed in xenopus oocytes; type: cell-based, Oocyte
[21] = molecular target: T2, Neuronal acetylcholine receptor; alpha4/beta2; assay: as §1; type: protein-complex assay; remark: listed apart in the source
[22] = molecular target: T3, Neuronal acetylcholine receptor subunit alpha-7; assay: Inhibitory concentration against Nicotinic acetylcholine receptor alpha-7 expressed in xenopus oocytes; type: cell-based; conditions: xenopus oocyte
[23] = molecular target: T4, Neuronal acetylcholine receptor; alpha3/beta4; assay: Inhibitory concentration against Nicotinic acetylcholine receptor alpha3-beta4; type: protein-complex assay
[24] = Inhibitory concentration against Nicotinic acetylcholine receptor alpha6-beta4; Range is 0.7-1 nM; design: species or system Homo sapiens
[25] = Inhibitory concentration against Nicotinic acetylcholine receptor alpha-6-alpha-3-beta-2; Range is 0.7-1 nM; design: species or system Homo sapiens
[26] = Effective concentration against Nicotinic acetylcholine receptor alpha4-beta4 expressed in xenopus oocytes; type: cell-based; conditions: oocyte
[27] = molecular target: T3, Neuronal acetylcholine receptor subunit alpha-7; assay: Maximal response against Nicotinic acetylcholine receptor alpha 7
[28] = molecular target: T4, Neuronal acetylcholine receptor; alpha3/beta4; assay: Maximal response against Nicotinic acetylcholine receptor alpha3-beta4 expressed in HEK293 cells; type: cell-based
[29] = molecular target: T1, Neuronal acetylcholine receptor; alpha3/beta2; assay: Maximal response against Nicotinic acetylcholine receptor alpha3-beta2 expressed in HEK293 cells; type: cell-based
[30] = molecular target: T2, Neuronal acetylcholine receptor; alpha4/beta2; assay: Maximal response against Nicotinic acetylcholine receptor alpha4-beta2 expressed in HEK293 cells; type: cell-based
[31] = Effective concentration against Nicotinic acetylcholine receptor alpha4-beta2 expressed in xenopus oocytes; type: cell-based; conditions: oocyte
[32] = Effective concentration against Nicotinic acetylcholine receptor alpha2-beta4 expressed in xenopus oocytes; type: cell-based; conditions: oocyte
[33] = molecular target: Neuronal acetylcholine receptor subunit alpha-3 (Homo sapiens) (UniProt P32297); assay: Maximal response against [Ca2+] permeability and [Ca2+] modulation of alpha-3 nicotinic receptor
[34] = Effective concentration against Nicotinic acetylcholine receptor alpha3-beta4 expressed in xenopus oocytes; type: cell-based; conditions: oocyte
[35] = molecular target: T3, Neuronal acetylcholine receptor subunit alpha-7; assay: Effective concentration against Nicotinic acetylcholine receptor alpha 7
[36] = molecular target: Neuronal acetylcholine receptor; alpha3/beta4 (Rattus norvegicus) (UniProt P04757+P12392); assay: Maximal response against Nicotinic acetylcholine receptor alpha3-beta4 in rat mid brain slices
[37] = molecular target: Neuronal acetylcholine receptor; alpha3/beta2 (Rattus norvegicus, UniProt P04757+P12390); assay: Effective concentration against Nicotinic acetylcholine receptor alpha3-beta2 in rat mid brain slices
[38] = molecular target: Neuronal acetylcholine receptor; alpha2/beta4 (Rattus norvegicus) (UniProt P12389+P12392); assay: Maximal response against Nicotinic acetylcholine receptor alpha2-beta4 in rat mid brain slices
[39] = molecular target: Neuronal acetylcholine receptor; alpha4/beta2 (Rattus norvegicus) (UniProt P09483+P12390); assay: Maximal response against Nicotinic acetylcholine receptor alpha4-beta2 in rat mid brain slices
[40] = molecular target: Neuronal acetylcholine receptor; alpha4/beta4 (Rattus norvegicus) (UniProt P09483+P12392); assay: Maximal response against Nicotinic acetylcholine receptor alpha4-beta4 in rat mid brain slices
[41] = molecular target: Neuronal acetylcholine receptor subunit alpha-7 (Rattus norvegicus, UniProt Q05941); assay: Effective concentration against Nicotinic acetylcholine receptor alpha 7 in rat mid brain slices
[42] = molecular target: T4, Neuronal acetylcholine receptor; alpha3/beta4; assay: Effective concentration against Nicotinic acetylcholine receptor alpha3-beta4; type: protein-complex assay
[43] = molecular target: T2, Neuronal acetylcholine receptor; alpha4/beta2; assay: Maximal response against Nicotinic acetylcholine receptor alpha4-beta2; type: protein-complex assay
[44] = molecular target: T5, Neuronal acetylcholine receptor; alpha4/beta4; assay: Effective concentration against Nicotinic acetylcholine receptor alpha4-beta4; type: protein-complex assay

SMILES: CC(C)C[C@H](NC(=O)[C@H](CC(N)=O)NC(=O)[C@H](CO)NC(=O)[C@H](Cc1c[nH]cn1)NC(=O)[C@H](CCC(=O)O)NC(=O)[C@H](CC(C)C)NC(=O)[C@H](Cc1c[nH]cn1)NC(=O)[C@H](CS)NC(=O)[C@@H](NC(=O)[C@@H]1CCCN1C(=O)[C@H](CC(N)=O)NC(=O)[C@H](CO)NC(=O)[C@H](CS)NC(=O)[C@H](CS)NC(=O)CN)C(C)C)C(=O)N[C@@H](CS)C(N)=O
- IC50 [1]: 8 nM
- IC50 [2]: 8 nM
- IC50 [3]: 8 nM
- IC50 [4]: 8 nM
- IC50 [5]: 8 nM

SMILES: CC[C@H](C)[C@H](N)C(=O)N[C@@H](CCCN=C(N)N)C(=O)N[C@@H](CC(=O)O)C(=O)N[C@@H](CCC(=O)O)C(=O)N[C@@H](CS)C(=O)N[C@@H](CS)C(=O)N[C@@H](CO)C(=O)N[C@@H](CC(N)=O)C(=O)N1CCC[C@H]1C(=O)N[C@@H](C)C(=O)N[C@@H](CS)C(=O)N[C@@H](CCCN=C(N)N)C(=O)N[C@H](C(=O)N[C@@H](CC(N)=O)C(=O)N[C@@H](CC(N)=O)C(=O)N1C[C@H](O)C[C@H]1C(=O)N[C@@H](Cc1c[nH]cn1)C(=O)N[C@H](C(=O)N[C@@H](CS)C(N)=O)C(C)C)C(C)C (H-IRDECCSNPACRVNN[Hyp]HVC-NH2)
- IC50 [6]: 5 nM
- IC50 [7]: 5 nM
- IC50 [8]: 5 nM
- IC50 [9]: 5 nM
- IC50 [10]: 5 nM

SMILES: CC(C)C[C@H](NC(=O)[C@H](CO)NC(=O)[C@H](CS)NC(=O)[C@H](CS)NC(=O)CN)C(=O)N1CCC[C@H]1C(=O)N1CCC[C@H]1C(=O)N[C@@H](CS)C(=O)N[C@@H](C)C(=O)N[C@@H](C)C(=O)N[C@@H](CC(N)=O)C(=O)N[C@@H](CC(N)=O)C(=O)N1CCC[C@H]1C(=O)N[C@@H](CC(=O)O)C(=O)N[C@@H](Cc1ccc(O)cc1)C(=O)N[C@@H](CS)C(N)=O (H-GCCSLPPCAANNPDYC-NH2)
- IC50 [11]: 9.6 nM
- IC50 [12]: 9.6 nM
- IC50 [13]: 9.6 nM
- IC50 [14]: 9.6 nM

SMILES: COc1cc2c3cc1Oc1cccc(c1O)C[C@@H]1c4c(cc(OC)c(O)c4Oc4ccc(cc4)CC3N(C)CC2)CC[N+]1(C)C (stereo partly specified)
- Concentration [15]: 3.2 µM
- Concentration [16]: 0.21 µM
- IC50 [17]: 2200 nM
- IC50 [11]: 230 nM
- IC50 [18]: 4200 nM
- IC50 [19]: 2300 nM and 4000 nM
- IC50 [20]: 2400 nM
- Concentration [21]: 7.6 µM
- Concentration [22]: 3.1 µM
- IC50 [14]: 14700 nM
- IC50 [23]: 4100 nM and 730 nM

SMILES: CC[C@H](C)[C@H](NC(=O)[C@H](CCC(N)=O)NC(=O)[C@@H]1CCCN1C(=O)[C@H](CC(N)=O)NC(=O)[C@H](Cc1c[nH]cn1)NC(=O)[C@@H](NC(=O)[C@@H](NC(=O)[C@H](CS)NC(=O)[C@@H](NC(=O)[C@@H]1CCCN1C(=O)[C@H](CC(N)=O)NC(=O)[C@H](CO)NC(=O)[C@H](CS)NC(=O)[C@H](CS)NC(=O)[C@@H]1CCCN1C(=O)[C@@H](N)CC(=O)O)C(C)C)[C@@H](C)O)C(C)C)C(=O)N[C@@H](CS)C(N)=O (H-DPCCSNPVCTVHNPQIC-NH2)
- IC50 [24]: 1 nM
- IC50 [25]: 1 nM

SMILES: CC(=O)OCC[N+](C)(C)C [ACETYLCHOLINE]
- EC50 [26]: 20000 nM
- Rmax [27]: 97%
- Rmax [28]: 100%
- Rmax [29]: 150%
- Rmax [30]: 172%
- EC50 [31]: 68000 nM
- EC50 [32]: 83000 nM
- Rmax [33]: 100%
- EC50 [34]: 203000 nM

SMILES: CN[C@@H](C)C/C=C/c1cncc(OC(C)C)c1 [ISPRONICLINE]
- EC50 [35]: > 10000 nM
- Rmax [36]: 24%
- EC50 [37]: > 100000 nM
- Rmax [38]: 56%
- Rmax [39]: 33%
- Rmax [40]: 42%
- EC50 [41]: > 100000 nM
- EC50 [42]: > 10000 nM
- Rmax [43]: 60%
- EC50 [44]: > 10000 nM
